From ChEMBL document CHEMBL2216752, “Carnitine palmitoyltransferase (CPT) modulators: a medicinal chemistry perspective on 35 years of research” (J Med Chem, 2011)

Columns and labels:
[1] = tested on: Homo sapiens; assay: Increase in plasma FFAs level in NIDD patient at 50 to 200 mg/day, po bid for 3 days before meals; type: functional
[2] = tested on: Homo sapiens; assay: Reduction in plasma LD/HDL ratio in NIDD patient at 12.5 to 50 mg/day, po for 14 days; type: functional; design: scale not given: the % may be the effect or the level left
[3] = tested on: Mus musculus; assay: Reduction in FBG level in db/db mouse at 50 mg/kg, po; type: functional; design: scale not given: the % may be the effect or the level left
[4] = tested on: Rattus norvegicus; assay: Reduction in blood glucose in STZ-treated fasted rat at 0.2 to 18 mg/kg, po measured 4 hrs post dose; type: functional; design: scale not given: the % may be the effect or the level left; settings: dose mg/kg 0.2-18
[5] = tested on: Mus musculus; assay: Reduction in glucose excretion in db/db mouse at 10 to 20 mg/kg/day, po dosed life long through food-admix; type: functional; design: scale not given: the % may be the effect or the level left
[6] = tested on: Homo sapiens; assay: Increase in carbohydrate oxidation in NIDD patient at 100 mg/day, po for 3 days administered as single dose; type: functional
[7] = tested on: Rattus norvegicus; assay: Reduction in hepatic glucose production in STZ-treated rat at 12.5 to 25 mg/kg, po; type: functional; design: scale not given: the % may be the effect or the level left; settings: dose mg/kg 12.5-25
[8] = tested on: Rattus norvegicus; assay: Reduction in fasting plasma glucose level in STZ-treated rat at 12.5 to 25 mg/kg, po; type: functional; design: scale not given: the % may be the effect or the level left; settings: dose mg/kg 12.5-25
[9] = tested on: Homo sapiens; assay: Reduction in postprandial glucose in NIDD patient at 125 mg/day, po for 4 days (reference value: 10.5 mM); type: functional
[10] = tested on: Mus musculus; assay: Reduction in daily water intake in db/db mouse at 10 to 20 mg/kg/day, po dosed life long through food-admix; type: functional; design: scale not given: the % may be the effect or the level left
[11] = tested on: Homo sapiens; assay: Reduction in basal hepatic glucose production in NIDD patient at 50 to 200 mg/day, po bid for 3 days before meals; type: functional; design: scale not given: the % may be the effect or the level left
[12] = tested on: Homo sapiens; assay: Reduction in plasma TG level in NIDD patient at 50 to 200 mg/day, po bid for 3 days before meals; type: functional; design: scale not given: the % may be the effect or the level left
[13] = species on record: Homo sapiens; assay: Increase in maximum cardiac output in CHF patient at 80 mg/day for 3 months measured during exercise; type: functional
[14] = tested on: Homo sapiens; assay: Reduction in BHB level in NIDD patient at 50 to 200 mg/day, po bid for 3 days before meals; type: functional; design: scale not given: the % may be the effect or the level left
[15] = tested on: Mus musculus; assay: Reduction in FBG level in db/db mouse at 10 mg/kg, po; type: functional; design: scale not given: the % may be the effect or the level left
[16] = tested on: Homo sapiens; assay: Increase in metabolic clearance of glucose in NIDD patient at 50 mg, po administered as single dose; type: functional
[17] = tested on: Mus musculus; assay: Reduction in fasting glucose in db/db mouse at 10 to 20 mg/kg/day, po dosed life long through food-admix; type: functional; design: scale not given: the % may be the effect or the level left
[18] = tested on: Rattus norvegicus; assay: Reduction in blood KB level in STZ-treated fasted rat at 0.2 to 18 mg/kg, po; type: functional; design: scale not given: the % may be the effect or the level left; settings: dose mg/kg 0.2-18
[19] = tested on: Homo sapiens; assay: Reduction in beta-hydroxy butyrate level in NIDD patient at 12.5 to 50 mg/day, po for 14 days; type: functional; design: scale not given: the % may be the effect or the level left
[20] = tested on: Homo sapiens; assay: Reduction in plasma TG level in NIDD patient at 12.5 to 50 mg/day, po for 14 days; type: functional; design: scale not given: the % may be the effect or the level left
[21] = species on record: Homo sapiens; assay: Increase in stroke volume in CHF patient at 80 mg/day for 3 months; type: functional
[22] = species on record: Homo sapiens; assay: Increase in left ventricular ejection fraction in CHF patient at 80 mg/day for 3 months; type: functional, Heart left ventricle
[23] = tested on: Homo sapiens; assay: Reduction in glucose appearance rate in NIDD patient at 100 mg/day, po for 3 days administered as single dose; type: functional; design: scale not given: the % may be the effect or the level left
[24] = tested on: Homo sapiens; assay: Increase in glucose MCR in NIDD patient at 50 mg, po administered as single dose; type: functional
[25] = tested on: Homo sapiens; assay: Reduction in whole body fat oxidation in human at 600 mg, po for 5 days; type: functional; design: scale not given: the % may be the effect or the level left
[26] = tested on: Homo sapiens; assay: Reduction in fasting plasma glucose in NIDD patient at 50 to 200 mg/day, po bid for 3 days before meals; type: functional; design: scale not given: the % may be the effect or the level left
[27] = tested on: Rattus norvegicus; assay: Reduction in plasma TG in high fat diet fed STZ-treated rat at 12.5 mg/kg/day, po for up to 4 weeks measured 3 days to 1 week post dose; type: functional; design: scale not given: the % may be the effect or the level left
[28] = tested on: MOLM-13; assay: Cytotoxicity against human MOLM13 cells assessed as reduction in cell viability; type: functional, cell-based
[29] = tested on: Mus musculus; assay: Reduction in urine volume in db/db mouse at 10 to 20 mg/kg/day, po dosed life long through food-admix; type: functional; design: scale not given: the % may be the effect or the level left
[30] = tested on: Rattus norvegicus; assay: Inhibition of CPT1 activity in blood KB level in STZ-treated fasted rat at 0.2 to 18 mg/kg, po; type: functional; settings: dose mg/kg 0.2-18
[31] = tested on: Homo sapiens; assay: Reduction in fat oxidation in NIDD patient at 100 mg/day, po for 3 days administered as single dose; type: functional; design: scale not given: the % may be the effect or the level left
[32] = tested on: Homo sapiens; assay: Reduction in plasma cholesterol level in NIDD patient at 50 to 200 mg/day, po bid for 3 days before meals; type: functional; design: scale not given: the % may be the effect or the level left
[33] = Cytotoxicity against human OCI-AML3 cells assessed as reduction in cell viability; type: functional, cell-based; settings: OCI-AML-3
[34] = tested on: Rattus norvegicus; assay: Reduction in fasting serum FFAs level in high fat diet fed STZ-treated rat at 12.5 mg/kg/day, po for up to 4 weeks measured 3 days to 1 week post dose; type: functional; design: scale not given: the % may be the effect or the level left
[35] = tested on: Homo sapiens; assay: Reduction in FBG level in NIDD patient at 12.5 to 50 mg/day, po for 14 days; type: functional; design: scale not given: the % may be the effect or the level left
[36] = tested on: Hepatocyte; assay: Inhibition of fatty acid synthesis in rat hepatocytes; type: functional, cell-based
[37] = Inhibition of carnitine palmitoyltransferase hemidiaphragms isolated from fasted pretreated rat assessed as reduction of [14]CO2 production from [1-14]-palmitate or [14C]-oleate
[38] = tested on: Canis familiaris; assay: Reduction in blood glucose in STZ-treated dog at 0.7 to 2 mg/kg/day, po for 7 days measured 6 hrs post dose (reference value: 9 mM); type: functional, Canis lupus familiaris
[39] = tested on: Canis familiaris; assay: Reduction in blood glucose in alloxan -treated dog at 7.5 mg/kg, po administered as single dose measured 6 hrs post dose (reference value: 9 mM); type: functional, Canis lupus familiaris
[40] = tested on: Mus musculus; assay: Reduction in blood glucose in fasted db/db mouse at 50 to 100 mg/kg, po measured 2 to 4 hrs post dose; type: functional; design: scale not given: the % may be the effect or the level left
[41] = tested on: Canis familiaris; assay: Reduction in fasting glucose in STZ-treated dog at 2.5 mg/kg/day, po for 7 days; type: functional, Canis lupus familiaris; design: scale not given: the % may be the effect or the level left
[42] = Inhibition of carnitine palmitoyltransferase in rat liver mitochondria assessed as formation of formation of palmitoyl[3H]carnitine from palmitoyl-CoA and [3H]carnitine
[43] = tested on: Mus musculus; assay: Reduction in blood glucose in fed db/db mouse at 50 to 100 mg/kg, po measured 2 to 4 hrs post dose; type: functional; design: scale not given: the % may be the effect or the level left
[44] = tested on: Rattus norvegicus; assay: Suppression of labeled pyruvate conversion to [14C]glucose in Sprague-Dawley rat at 10 to 20 mg/kg, po; type: functional; settings: dose mg/kg 10-20
[45] = tested on: Rattus norvegicus; assay: Reduction in KB level in alloxan-treated rat at 25 to 50 mg/kg, po measured 2 to 5 hrs post dose; type: functional; design: scale not given: the % may be the effect or the level left

CCOC(=O)C1(CCCCCCOc2ccc(Cl)cc2)CO1 (racemic) [rac-ETOMOXIR]
Activity [1]: 52%
Activity [2]: 35%
Activity [3]: 55%
Activity [4]: 40%
Activity [5]: 70%
Activity [6]: 58%
Activity [7]: 32%
Activity [8]: 32%
Activity [9]: 8.3 mM
Activity [10]: 50%
Activity [11]: 18%
Activity [12]: 54%
Activity [13]: 38%
Activity [14]: 44%
Activity [15]: 43%
Activity [16]: 30%
Activity [17]: 50%
Activity [18]: 87%
Activity [19]: 50%
Activity [20]: 30%
Activity [21]: 30%
Activity [22]: 25%
Activity [23]: 8%
Activity [24]: 33%
Activity [25]: 13.7%
Activity [26]: 18%
Activity [27]: 67%
IC50 [28]: 51000 nM
Activity [29]: 70%
inhibition (INH) [30]: <=99%
Activity [31]: 18%
Activity [32]: 24%
IC50 [33]: 51000 nM
Activity [34]: 56%
Activity [35]: <=45%
IC50 [36]: 2000 nM

CCCCCCCCCCCCCCC1(C(=O)OC)CO1 (racemic) [METHYL PALMOXIRATE]
EC50 [37]: 1000 nM
Activity [38]: 6.5 mM
Activity [39]: 6.5 mM
Activity [40]: 78%
Activity [41]: 8%
IC50 [42]: 46 nM
Activity [43]: 40%
Activity [44]: 50%
Activity [45]: 70%
